Results taken from ChEMBL document CHEMBL1143211, “Inhibitors of proteases and amide hydrolases that employ an alpha-ketoheterocycle as a key enabling functionality” (Bioorg Med Chem, 2008).
Where a SMILES comes first, the peptide text is derived from it. [ ]: non-standard residue; d: D form. The star is where a group is joined. Nle = CCCC[C@H](N)C(=O)O; Bz = O=C(c1ccccc1)*

Legend:
[1] = Inhibition of dengue virus NS3 protease
[2] = Inhibition of bovine trypsin; set-up: species or system Bos taurus
[3] = Selectivity for human alpha-thrombin over bovine trypsin
[4] = test system: Hamster; assay: Efficacy in po dosed hamster acute lung injury model; format: functional; details: Cricetinae
[5] = Oral bioavailability in rat; format: ADME, organism-based; details: in vivo
[6] = Inhibition of human rhinovirus 14 3C protease; set-up: species or system rhinovirus B14
[7] = test system: rhinovirus B14; assay: Antiviral activity against human rhinovirus 14; format: functional, organism-based; details: Rhinovirus B
[8] = Inhibition of trypsin-like activity of human 20S proteasome
[9] = Inhibition of post-glutamyl peptide hydrolase-like activity of human 20S proteasome
[10] = biological target: T1, Fatty-acid amide hydrolase 1 (Homo sapiens, UniProt O00519); assay: Inhibition of human recombinant FAAH
T1 sequence (O00519 whole entry): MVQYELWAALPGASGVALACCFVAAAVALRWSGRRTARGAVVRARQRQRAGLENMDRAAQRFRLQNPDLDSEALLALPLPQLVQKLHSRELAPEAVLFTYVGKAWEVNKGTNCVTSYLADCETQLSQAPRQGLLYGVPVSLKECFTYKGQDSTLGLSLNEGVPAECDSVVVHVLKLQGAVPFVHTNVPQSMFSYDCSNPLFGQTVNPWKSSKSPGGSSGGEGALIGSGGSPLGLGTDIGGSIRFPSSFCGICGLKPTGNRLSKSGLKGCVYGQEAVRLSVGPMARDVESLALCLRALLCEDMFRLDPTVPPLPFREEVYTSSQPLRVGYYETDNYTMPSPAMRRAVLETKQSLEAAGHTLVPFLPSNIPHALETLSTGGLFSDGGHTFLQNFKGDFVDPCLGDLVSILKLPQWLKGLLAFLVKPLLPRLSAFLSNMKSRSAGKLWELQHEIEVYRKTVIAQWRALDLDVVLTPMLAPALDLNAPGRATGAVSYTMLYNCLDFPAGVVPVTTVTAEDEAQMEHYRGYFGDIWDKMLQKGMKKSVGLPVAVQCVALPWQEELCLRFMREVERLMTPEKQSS

[11] = Selectivity for rat FAAH over triacylglycerol hydrolase
[12] = organism: Homo sapiens; assay: Selectivity for human alpha-thrombin over human trypsin
[13] = Inhibition of human beta-tryptase
[14] = biological target: T2, Cathepsin K (Homo sapiens, UniProt P43235); assay: Inhibition of human recombinant cathepsin K
T2 sequence (P43235 whole entry): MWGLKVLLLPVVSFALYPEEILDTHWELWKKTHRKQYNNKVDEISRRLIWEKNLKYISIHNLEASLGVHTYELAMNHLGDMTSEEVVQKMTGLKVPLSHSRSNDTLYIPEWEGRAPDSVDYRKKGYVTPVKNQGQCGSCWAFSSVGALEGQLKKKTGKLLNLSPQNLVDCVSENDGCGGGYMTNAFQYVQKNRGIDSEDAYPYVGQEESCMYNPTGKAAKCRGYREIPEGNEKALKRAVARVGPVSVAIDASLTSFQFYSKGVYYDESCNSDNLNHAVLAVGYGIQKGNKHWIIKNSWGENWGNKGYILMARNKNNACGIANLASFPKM

[15] = biological target: Cathepsin B (Homo sapiens, UniProt P07858); assay: Inhibition of human liver cathepsin B
[16] = biological target: Procathepsin L (Homo sapiens, UniProt P07711); assay: Inhibition of human recombinant cathepsin L
Sequence of Procathepsin L (P07711 whole entry): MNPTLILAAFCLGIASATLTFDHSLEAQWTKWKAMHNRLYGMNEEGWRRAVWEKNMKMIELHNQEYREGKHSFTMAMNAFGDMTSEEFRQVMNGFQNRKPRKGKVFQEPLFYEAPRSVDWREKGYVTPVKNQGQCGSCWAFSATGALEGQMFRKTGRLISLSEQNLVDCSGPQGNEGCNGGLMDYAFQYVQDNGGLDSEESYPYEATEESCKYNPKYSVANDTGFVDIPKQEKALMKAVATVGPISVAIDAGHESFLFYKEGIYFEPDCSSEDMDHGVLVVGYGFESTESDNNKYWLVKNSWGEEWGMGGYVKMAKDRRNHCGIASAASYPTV

[17] = biological target: Cathepsin S (Homo sapiens, UniProt P25774); assay: Inhibition of human recombinant cathepsin S
Sequence of Cathepsin S (P25774 whole entry): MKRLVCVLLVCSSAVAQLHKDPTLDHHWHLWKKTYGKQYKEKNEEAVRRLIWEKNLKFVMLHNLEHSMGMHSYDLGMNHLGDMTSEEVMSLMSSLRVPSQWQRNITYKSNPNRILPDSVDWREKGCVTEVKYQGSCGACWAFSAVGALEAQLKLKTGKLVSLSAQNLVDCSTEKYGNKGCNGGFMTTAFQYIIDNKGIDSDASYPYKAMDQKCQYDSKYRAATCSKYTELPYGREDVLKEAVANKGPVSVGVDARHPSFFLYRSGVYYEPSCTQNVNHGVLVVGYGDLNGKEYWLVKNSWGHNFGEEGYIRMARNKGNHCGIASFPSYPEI

[18] = biological target: Prothrombin (Homo sapiens, UniProt P00734); assay: Inhibition of human alpha-thrombin
[19] = biological target: T3, Fatty-acid amide hydrolase 1 (Rattus norvegicus, UniProt P97612)
T3 sequence (P97612 whole entry): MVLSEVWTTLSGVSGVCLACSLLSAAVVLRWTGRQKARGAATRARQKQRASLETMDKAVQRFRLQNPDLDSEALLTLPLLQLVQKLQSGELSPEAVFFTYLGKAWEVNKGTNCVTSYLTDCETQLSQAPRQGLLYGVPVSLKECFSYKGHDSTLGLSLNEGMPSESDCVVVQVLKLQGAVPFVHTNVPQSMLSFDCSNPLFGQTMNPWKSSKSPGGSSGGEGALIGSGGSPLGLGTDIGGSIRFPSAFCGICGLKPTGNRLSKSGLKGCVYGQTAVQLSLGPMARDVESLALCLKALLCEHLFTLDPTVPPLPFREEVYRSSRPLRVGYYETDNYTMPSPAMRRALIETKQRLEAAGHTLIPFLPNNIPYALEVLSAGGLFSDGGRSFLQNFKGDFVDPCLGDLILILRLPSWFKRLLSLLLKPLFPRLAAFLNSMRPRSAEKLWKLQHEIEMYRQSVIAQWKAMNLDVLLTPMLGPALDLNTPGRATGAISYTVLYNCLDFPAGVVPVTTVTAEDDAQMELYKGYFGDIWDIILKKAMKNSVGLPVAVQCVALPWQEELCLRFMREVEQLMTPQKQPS

[20] = biological target: Coagulation factor X (Homo sapiens, UniProt P00742); assay: Inhibition of human factor 10a
Sequence of Coagulation factor X (P00742 41-179 limits assumed): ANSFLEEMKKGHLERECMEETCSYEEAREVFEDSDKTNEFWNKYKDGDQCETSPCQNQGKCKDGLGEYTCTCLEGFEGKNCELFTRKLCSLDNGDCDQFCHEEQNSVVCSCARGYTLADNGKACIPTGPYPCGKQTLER
Sequence of Coagulation factor X (P00742 235-488 limits assumed): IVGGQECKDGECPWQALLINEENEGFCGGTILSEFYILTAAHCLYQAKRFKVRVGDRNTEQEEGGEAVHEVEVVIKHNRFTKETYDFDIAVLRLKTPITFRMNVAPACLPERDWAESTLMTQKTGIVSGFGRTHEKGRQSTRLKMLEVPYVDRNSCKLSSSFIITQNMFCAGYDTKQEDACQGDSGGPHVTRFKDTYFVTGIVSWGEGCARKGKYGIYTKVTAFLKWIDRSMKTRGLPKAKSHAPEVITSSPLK

[21] = biological target: Plasma kallikrein (Homo sapiens, UniProt P03952); assay: Inhibition of kallikrein
Sequence of Plasma kallikrein (P03952 20-390 limits assumed): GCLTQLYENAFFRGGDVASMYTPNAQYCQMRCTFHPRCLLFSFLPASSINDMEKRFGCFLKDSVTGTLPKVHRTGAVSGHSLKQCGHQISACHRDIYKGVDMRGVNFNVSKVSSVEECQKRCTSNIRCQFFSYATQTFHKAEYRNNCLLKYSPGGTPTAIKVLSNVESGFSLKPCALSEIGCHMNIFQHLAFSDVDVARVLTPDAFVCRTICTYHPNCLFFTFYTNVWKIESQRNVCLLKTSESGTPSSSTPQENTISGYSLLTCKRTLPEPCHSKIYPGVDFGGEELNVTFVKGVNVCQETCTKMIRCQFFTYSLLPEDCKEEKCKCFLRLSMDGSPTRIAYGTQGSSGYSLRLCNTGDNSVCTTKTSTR
Sequence of Plasma kallikrein (P03952 391-638 limits assumed): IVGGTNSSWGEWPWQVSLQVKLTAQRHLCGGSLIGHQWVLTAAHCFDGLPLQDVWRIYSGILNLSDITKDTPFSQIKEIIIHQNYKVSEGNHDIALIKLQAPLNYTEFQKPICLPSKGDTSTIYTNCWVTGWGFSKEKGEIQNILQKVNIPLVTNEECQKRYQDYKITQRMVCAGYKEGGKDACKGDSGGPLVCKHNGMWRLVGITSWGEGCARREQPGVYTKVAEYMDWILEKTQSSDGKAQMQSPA

[22] = biological target: Trypsin (Homo sapiens, UniProt P07477+P07478+P35030); assay: Inhibition of human trypsin; format: protein assay
[23] = biological target: Granzyme B (Homo sapiens, UniProt P10144); assay: Inhibition of granzyme B
Sequence of Granzyme B (P10144 whole entry): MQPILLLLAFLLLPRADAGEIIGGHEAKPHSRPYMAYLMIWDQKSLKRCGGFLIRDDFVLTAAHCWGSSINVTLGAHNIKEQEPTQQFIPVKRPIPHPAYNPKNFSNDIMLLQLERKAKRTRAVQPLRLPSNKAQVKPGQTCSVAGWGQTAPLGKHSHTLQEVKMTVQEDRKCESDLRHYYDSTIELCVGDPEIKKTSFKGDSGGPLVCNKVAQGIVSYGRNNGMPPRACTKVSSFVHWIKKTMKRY

CCCC[C@H](NC(=O)c1ccccc1)C(=O)N[C@@H](CCCCN)C(=O)N[C@@H](CCCNC(=N)N)C(=O)N[C@H](C=O)CCCNC(=N)N (Bz-[Nle]KRR-aldehyde)
Ki [1]: 5.8 µM

CN[C@H](Cc1ccccc1)C(=O)N1CCC[C@H]1C(=O)N[C@@H](CCCN=C(N)N)C(=O)c1nccs1
Ki [2]: 0.0012 µM | Ratio Ki [3]: 10

Cc1cccc(Cc2nnc(C(=O)[C@@H](NC(=O)Cn3c(-c4ccc(F)cc4)ncc(N)c3=O)C(C)C)o2)c1
ED50 [4]: 13 mg/kg

NCCCC[C@H](NC(=O)[C@@H]1CCCN1C(=O)[C@H](N)CC1CCCCC1)C(=O)c1nccs1
bioavailability [5]: 23%

CC(C)C[C@H](NC(=O)OCc1ccccc1)C(=O)N[C@@H](Cc1ccccc1)C(=O)N[C@@H](C[C@H]1CCNC1=O)C(=O)c1ccccn1
Ki [6]: 0.17 µM | EC50 [7]: 4 µM

Cc1ccc(S(=O)(=O)N[C@@H](CC(=O)NCC(C)(C)C)C(=O)N[C@](C)(CO)C(=O)N[C@@H](CC(C)C)C(=O)c2nnc(-c3ccccc3)o2)cc1
Ki [8]: > 900 µM | Ki [9]: > 900 µM

CCCCCCCC/C=C\CCCCCCCC(=O)c1nc2ncccc2o1
Ki [10]: 0.013 µM | Selectivity ratio [11]: 30

NCCCC[C@H](NC(=O)c1cc(F)cc(F)c1)C(=O)c1noc(Cc2ccc(C(=O)NCCc3cccc(Cl)c3)cc2)n1
Selectivity ratio [12]: 275 | Ki [13]: 0.0015 µM

CC(C)C[C@H](NC(=O)C1CCNCC1)C(=O)N[C@@H](CCc1ccccc1)C(=O)c1nc2cc(C(C)(C)C)ccc2o1
Ki [14]: 0.0085 µM | Ki [15]: 7 µM | Ki [16]: 0.07 µM | Ki [17]: 0.03 µM

CCCC[C@H](NC(=O)OCc1ccccc1)C(=O)c1nnc(-c2ccco2)o1
Ki [14]: 3 µM | Ki [15]: 34 µM | Ki [16]: 28 µM | Ki [17]: 2 µM

C=CCOC(=O)N[C@@H](CC1CCNC1)C(=O)c1noc(Cc2ccc(C(=O)NC3Cc4ccccc4C3)cc2)n1 (stereo partly specified)
Selectivity ratio [12]: > 50 | Ki [13]: 0.025 µM

N=C(N)NCCC[C@H](NC(=O)[C@@H]1CCN2CC[C@@](N)(Cc3ccccc3)C(=O)N12)C(=O)c1nc2ccccc2s1
Ki [18]: 0.00065 µM | bioavailability [5]: 25%

N#Cc1cnc(C(=O)CCc2ccc(-c3ccccc3)cc2)o1
Ki [10]: 0.00026 µM | Ki [19]: 0.0002 µM

Cc1ccc(S(=O)(=O)N[C@@H](CC(=O)NCC(C)(C)C)C(=O)N[C@@H](C)C(=O)N[C@@H](CC(C)C)C(=O)c2nnc(-c3ccc(N(C)C)cc3)o2)cc1
Ki [8]: 290 µM | Ki [9]: > 300 µM

CN[C@H](Cc1ccccc1)C(=O)N1CCC[C@H]1C(=O)N[C@@H](CCCNC(=N)N)C(=O)c1cc2ccccc2s1
Ki [2]: 1.3 µM | Ratio Ki [3]: 12000

CC(C)C[C@H](NC(=O)OCc1ccccc1)C(=O)N[C@@H](Cc1ccccc1)C(=O)N[C@@H](C[C@H]1CCNC1=O)C(=O)c1nc2ccccc2s1
Ki [6]: 0.065 µM | EC50 [7]: 3.2 µM

N=C(N)NCCC[C@H](NC(=O)[C@@H]1CC[C@@H]2CC[C@@](N)(Cc3ccccc3)C(=O)N21)C(=O)c1nc2ccccc2s1
Ki [18]: 0.00085 µM | bioavailability [5]: 2%

N=C(N)NCCC[C@H](NC(=O)CNC(=O)[C@@H](CCCNC(=N)N)NS(=O)(=O)CCc1ccccc1)C(=O)c1nc2ccccc2s1
IC50 [20]: 0.002 µM | IC50 [21]: 0.029 µM

CC(C)[C@H](NC(=O)Cn1c(-c2ccc(F)cc2)ncc(N)c1=O)C(=O)c1nnc(C(C)(C)c2ccccc2)o1
ED50 [4]: 10 mg/kg

N=C(N)N1CCC[C@@H](C[C@H](NC(=O)CN2C(=O)CN(CCCc3ccccc3)C(=O)[C@H]2Cc2ccccc2Cl)C(=O)c2nccs2)C1
Ki [18]: 0.0012 µM | IC50 [22]: 9.7 µM | Ratio Ki [12]: 500

Cc1cc(C(=O)N[C@H](C(=O)N[C@@H](Cc2ccc(F)cc2)C(=O)N[C@@H](C[C@@H]2CCNC2=O)C(=O)c2nc3ccccc3s2)C(C)C)no1
Ki [6]: 0.0045 µM | EC50 [7]: 0.34 µM

CC[C@H](C)[C@H](NC(C)=O)C(=O)N[C@H]1CCc2cccc3c2N(C1=O)[C@H](C(=O)N[C@@H](CC(=O)O)C(=O)c1nc2ccccc2s1)C3
Ki [23]: 0.085 µM

CC[C@H](C)[C@H](NC(C)=O)C(=O)N[C@H]1CCc2cccc3c2N(C1=O)[C@H](C(=O)N[C@H](C=O)CC(=O)O)C3
Ki [23]: 0.008 µM

N=C(N)NCCC[C@H](NC(=O)CNC(=O)[C@@H](CCCNC(=N)N)NS(=O)(=O)CCc1ccccc1)C(=O)c1nccs1
IC50 [20]: 0.001 µM | IC50 [21]: 0.12 µM

CC(C)C[C@H](NC(=O)OCc1ccccc1)C(=O)N[C@@H](Cc1ccccc1)C(=O)N[C@@H](C[C@H]1CCNC1=O)C(=O)c1nccs1
Ki [6]: 0.7 µM | EC50 [7]: 7.9 µM

NCCCC[C@H](NC(=O)[C@@H]1CCCN1C(=O)[C@@H](CC1CCCCC1)NCC(=O)O)C(=O)c1ncco1
bioavailability [5]: < 5%

CCCC[C@H](NC(=O)c1ccccc1)C(=O)N[C@@H](CCCCN)C(=O)N[C@@H](CCCNC(=N)N)C(=O)N[C@@H](CCCNC(=N)N)C(=O)c1nc2ccccc2o1
Ki [1]: 83 µM

CC(C)C[C@H](NC(=O)C1CCNCC1)C(=O)N[C@@H](CCc1ccccc1)C(=O)c1nc2cc(S(N)(=O)=O)ccc2o1
Ki [14]: 0.04 µM | Ki [15]: 0.09 µM | Ki [16]: 0.22 µM | Ki [17]: 0.04 µM

CC(C)C[C@H](NC(=O)OCc1ccccc1)C(=O)N[C@@H](Cc1ccccc1)C(=O)N[C@@H](C[C@H]1CCNC1=O)C(=O)c1cc2ccccc2s1
Ki [6]: 4.7 µM | EC50 [7]: > 10 µM

CN[C@H](Cc1ccccc1)C(=O)N1CCC[C@H]1C(=O)N[C@@H](CCCN=C(N)N)C(=O)c1nc2ccccc2o1
Ki [2]: 0.013 µM | Ratio Ki [3]: 30

COC(=O)N[C@H](C(=O)N1CCC[C@H]1C(=O)N[C@H](C(=O)c1nn(-c2ccc(N(C)C)cc2)c(=O)o1)C(C)C)C(C)C
ED50 [4]: 7.5 mg/kg

CCCC[C@H](NC(=O)c1ccccc1)C(=O)N[C@@H](CCCCN)C(=O)N[C@@H](CCCNC(=N)N)C(=O)N[C@@H](CCCNC(=N)N)C(=O)c1nccs1
Ki [1]: 43 µM

CC[C@H](C)[C@H](NC(C)=O)C(=O)N[C@H]1CCc2cccc3c2N(C1=O)[C@H](C(=O)N[C@@H](CC(=O)O)C(=O)c1nnc(-c2ccccc2)o1)C3
Ki [23]: 0.007 µM

CN[C@H](Cc1ccccc1)C(=O)N1CCC[C@H]1C(=O)N[C@@H](CCCN=C(N)N)C(=O)c1nc2c(s1)CCCC2
Ki [2]: 0.0044 µM | Ratio Ki [3]: 15

CCCC[C@H](NC(=O)c1ccccc1)C(=O)N[C@@H](CCCCN)C(=O)N[C@@H](CCCNC(=N)N)C(=O)N[C@H](CCCNC(=N)N)B(O)O
Ki [1]: 0.043 µM

CCCCCCCC/C=C\CCCCCCCC(=O)c1nc2ccccc2o1
Ki [10]: 0.073 µM
